Data reported in patent EP0932388B1, “DOSAGE FORM AND METHOD FOR ADM[…]” (ALZA CORPORATION, priority 1996, dated 1998).

Test system: school children
Assay: clinical study of methylphenidate release profiles (SKAMP and CLAM ratings, mathematics test, activity monitor)
Type: in vivo
Details: oral
Procedure: The CLAM Test is a behavior rating that indicates social conformity or rebellion as developed by Conners, Lonez, and Milch and SKAMP is a rating that also measures behavior as developed by Swanson and reported in Psychopharmacological Bulletin, Vol. 21, pp. 887-890 (1985).
The effect measurements in this study were: (1) observer ratings on SKAMP scale (during classroom time) and (2) performance on the computerized mathematics test. Each child was tested on the mathematics test before the study began, and based on this pre-test during the study, a mathematics test appropriate for each child's ability was given. The morning and evening parent CLAM assessments were used to identify unusual behaviors. The evening parent CLAM was used to determine the presence of treatment effects in the evening hours, particularly treatment effects on the time the child fell asleep, and whether the child's sleep was interrupted. All of the children also wore an activity monitor (Actigraph) which records the movements of the child throughout the day. The activity (number of movements per minute) is recorded electronically and modeled as a function of the drug effect.
The immediate release tablet and the sustained-release dosage form were compared to a sustained-release dosage form that administered methylphenidate in an ascending profile. The sustained-release ascending profile corresponds to administering 4.2 mg at zero hour, 1.1 mg at 1.5 hours, 1.1 mg at 2 hours, 1.2 mg at 2.5 hours, 1.2 mg at 3.0 hours, 1.3 mg at 3.5 hours, 1.3 mg at 4 hours, 1.5 mg at 4.5 hours, 1.5 mg at 5 hours, 1.8 mg at 5.5 hours, 1.8 mg at 6 hours, and 2.0 mg at 6.5 hours, to produce the sustained-ascending release dotted line profile seen in Figure 2.
The accompanying figures present the results of the above-described study. […]

## COC(=O)C(c1ccccc1)C1CCCCN1 (stereo not drawn) [methylphenidate]
controlled-sustained ascending profile of methylphenidate
  therapeutic effect and tolerance: desired therapeutic effect without tolerance
sustained-nonascending dose of methylphenidate (20 mg program)
  acute tolerance: development of acute tolerance
sustained-nonascending dose of methylphenidate (20 mg program), versus placebo
  behavior, activity and mathematical scores: a decrease in activity, higher mathematical scores and a lessening of inappropriate behavior
